Reference: article PMC5218480 (PLoS ONE, 2017)

Test system: MV-4-11 cells
Test: Gene expression microarray analysis (Affymetrix PrimeView) and GSEA
Format: cell-based, human
Parameters: RFU PODN (11730768_x_at) / Fold change /veh PODN (11730768_x_at) / RFU LINC00158 (11744669_a_at) / Fold change /veh LINC00158 (11744669_a_at) / RFU DUSP10 (11751237_a_at) / Fold change /veh DUSP10 (11751237_a_at) / RFU ID3 (11757404_x_at) / Fold change /veh ID3 (11757404_x_at) / RFU PLEKHG5 (11737974_s_at) / Fold change /veh PLEKHG5 (11737974_s_at) / RFU LRRC4B (11730491_at) / Fold change /veh LRRC4B (11730491_at) / RFU GIMAP4 (11747438_a_at) / Fold change /veh GIMAP4 (11747438_a_at) / RFU KRT8 (11758183_x_at) / Fold change /veh KRT8 (11758183_x_at) / RFU CNN1 (11734310_a_at) / Fold change /veh CNN1 (11734310_a_at) / RFU VPS37D (11726825_at) / Fold change /veh VPS37D (11726825_at) / RFU C10orf10 (11716522_x_at) / Fold change /veh C10orf10 (11716522_x_at) / RFU KIR2DL2 /// KIR2DL4 /// KIR2DL5A /// KIR2DL5B /// KIR2DS1 /// KIR2DS2 /// KIR2DS3 /// KIR2DS4 /// KIR3DL3 /// KIR3DL3 /// KIR3DS1 (11738374_at) / Fold change /veh KIR2DL2 /// KIR2DL4 /// KIR2DL5A /// KIR2DL5B /// KIR2DS1 /// KIR2DS2 /// KIR2DS3 /// KIR2DS4 /// KIR3DL3 /// KIR3DL3 /// KIR3DS1 (11738374_at) / RFU C1QL1 (11718748_at) / Fold change /veh C1QL1 (11718748_at) / RFU TMPRSS4 (11747572_a_at) / Fold change /veh TMPRSS4 (11747572_a_at) / RFU HAMP (11756126_x_at) / Fold change /veh HAMP (11756126_x_at) / RFU RNFT2 (11725882_a_at) / Fold change /veh RNFT2 (11725882_a_at) / RFU NR4A2 (11747474_a_at) / Fold change /veh NR4A2 (11747474_a_at) / RFU ABCC12 (11746883_a_at) / Fold change /veh ABCC12 (11746883_a_at) / RFU TMEM136 (11760407_x_at) / Fold change /veh TMEM136 (11760407_x_at) / RFU CLDN22 /// WWC2 (11732394_at) / Fold change /veh CLDN22 /// WWC2 (11732394_at) / RFU HLA-DPB1 (11760878_x_at) / Fold change /veh HLA-DPB1 (11760878_x_at) / RFU SPINT1 (11716480_a_at) / Fold change /veh SPINT1 (11716480_a_at) / RFU GAP43 (11754022_s_at) / Fold change /veh GAP43 (11754022_s_at) / RFU A4GNT (11735810_at) / Fold change /veh A4GNT (11735810_at) / RFU PRB3 (11715151_x_at) / Fold change /veh PRB3 (11715151_x_at) / RFU TUBB4B (11761932_at) / Fold change /veh TUBB4B (11761932_at) / RFU CAPN14 (11732068_a_at) / Fold change /veh CAPN14 (11732068_a_at) / RFU TMCC2 (11721928_a_at) / Fold change /veh TMCC2 (11721928_a_at) / RFU IRGQ (11745062_a_at) / Fold change /veh IRGQ (11745062_a_at) / RFU FAM174B (11720279_a_at) / Fold change /veh FAM174B (11720279_a_at) / RFU TMPRSS4 (11748680_a_at) / Fold change /veh TMPRSS4 (11748680_a_at) / RFU FAM212B (11763350_a_at) / Fold change /veh FAM212B (11763350_a_at) / RFU PLEKHG5 (11743358_a_at) / Fold change /veh PLEKHG5 (11743358_a_at) / RFU ZSCAN30 (11745921_a_at) / Fold change /veh ZSCAN30 (11745921_a_at) / RFU CMKLR1 (11741424_a_at) / Fold change /veh CMKLR1 (11741424_a_at) / RFU LOC101060620 /// MAPK8IP1 (11723275_at) / Fold change /veh LOC101060620 /// MAPK8IP1 (11723275_at) / RFU SPTSSB (11747773_x_at) / Fold change /veh SPTSSB (11747773_x_at) / RFU PRSS12 (11739890_at) / Fold change /veh PRSS12 (11739890_at) / RFU BIN1 (11741810_x_at) / Fold change /veh BIN1 (11741810_x_at) / RFU WNT11 (11732464_a_at) / Fold change /veh WNT11 (11732464_a_at) / RFU C10orf10 (11716521_a_at) / Fold change /veh C10orf10 (11716521_a_at) / RFU C5orf56 (11738089_at) / Fold change /veh C5orf56 (11738089_at) / RFU CYB561 (11721691_x_at) / Fold change /veh CYB561 (11721691_x_at) / RFU ANKRD19P (11752326_a_at) / Fold change /veh ANKRD19P (11752326_a_at) / RFU OR2T12 /// OR2T33 /// OR2T8 (11738714_s_at) / Fold change /veh OR2T12 /// OR2T33 /// OR2T8 (11738714_s_at) / RFU VCAN (11748164_a_at) / Fold change /veh VCAN (11748164_a_at) / RFU JSRP1 (11732532_at) / Fold change /veh JSRP1 (11732532_at) / RFU KRTAP10-11 (11738290_x_at) / Fold change /veh KRTAP10-11 (11738290_x_at) / RFU MYO3A (11730013_a_at) / Fold change /veh MYO3A (11730013_a_at) / RFU EBF3 (11725865_a_at) / Fold change /veh EBF3 (11725865_a_at) / RFU CAMK2N1 (11719241_x_at) / Fold change /veh CAMK2N1 (11719241_x_at) / RFU C5orf56 (11738088_a_at) / Fold change /veh C5orf56 (11738088_a_at) / RFU OLFML3 (11715873_a_at) / Fold change /veh OLFML3 (11715873_a_at) / RFU LOC100653217 /// NTM (11731650_a_at) / Fold change /veh LOC100653217 /// NTM (11731650_a_at) / RFU MAPK11 (11762145_a_at) / Fold change /veh MAPK11 (11762145_a_at) / RFU FIZ1 (11724087_x_at) / Fold change /veh FIZ1 (11724087_x_at) / RFU OASL (11726364_x_at) / Fold change /veh OASL (11726364_x_at) / RFU SOX15 (11748057_x_at) / Fold change /veh SOX15 (11748057_x_at) / RFU CD79A (11719716_a_at) / Fold change /veh CD79A (11719716_a_at) / RFU HIST1H1D (11736915_at) / Fold change /veh HIST1H1D (11736915_at) / RFU CASKIN2 (11723855_a_at) / Fold change /veh CASKIN2 (11723855_a_at) / RFU LOC730098 (11760151_x_at) / Fold change /veh LOC730098 (11760151_x_at) / RFU OR4N2 (11742367_at) / Fold change /veh OR4N2 (11742367_at) / RFU PRRT2 (11749266_a_at) / Fold change /veh PRRT2 (11749266_a_at) / RFU SNX32 (11753110_a_at) / Fold change /veh SNX32 (11753110_a_at) / RFU CDHR5 (11726645_a_at) / Fold change /veh CDHR5 (11726645_a_at) / RFU RCAN1 (11760418_a_at) / Fold change /veh RCAN1 (11760418_a_at) / RFU FAM167A (11723789_a_at) / Fold change /veh FAM167A (11723789_a_at) / RFU FAM26E (11764081_at) / Fold change /veh FAM26E (11764081_at) / RFU ISYNA1 (11749810_s_at) / Fold change /veh ISYNA1 (11749810_s_at) / RFU ACY1 (11761880_at) / Fold change /veh ACY1 (11761880_at) / RFU 11764098_at / Fold change /veh 11764098_at / RFU SAMD14 (11745864_x_at) / Fold change /veh SAMD14 (11745864_x_at) / RFU NPB (11741838_a_at) / Fold change /veh NPB (11741838_a_at) / RFU TMPRSS6 (11731388_a_at) / Fold change /veh TMPRSS6 (11731388_a_at) / RFU KRTAP10-2 (11738614_at) / Fold change /veh KRTAP10-2 (11738614_at) / RFU ARHGAP8 /// PRR5-ARHGAP8 (11727945_x_at) / Fold change /veh ARHGAP8 /// PRR5-ARHGAP8 (11727945_x_at) / RFU KRTAP5-7 /// NADSYN1 (11734609_at) / Fold change /veh KRTAP5-7 /// NADSYN1 (11734609_at) / RFU RASL12 (11751679_a_at) / Fold change /veh RASL12 (11751679_a_at) / RFU CDKN2B (11736163_a_at) / Fold change /veh CDKN2B (11736163_a_at) / RFU PRF1 (11729649_at) / Fold change /veh PRF1 (11729649_at) / RFU, ZNF638 /// ZNF638-IT1 / Fold change vs veh, ZNF638 /// ZNF638-IT1 / RFU, PANK3 / Fold change vs veh, PANK3 / RFU, SH3YL1 / Fold change vs veh, SH3YL1 / RFU, ZEB2 / Fold change vs veh, ZEB2 / RFU, NRIP1 / Fold change vs veh, NRIP1 / RFU, PTTG1IP / Fold change vs veh, PTTG1IP / RFU, CAPN2 / Fold change vs veh, CAPN2 / RFU, MED14 / Fold change vs veh, MED14 / RFU, SNORA58 / Fold change vs veh, SNORA58 / RFU, C1orf63 / Fold change vs veh, C1orf63 / RFU, LRRFIP1 / Fold change vs veh, LRRFIP1 / RFU, NDUFAF7 / Fold change vs veh, NDUFAF7 / RFU, SLC12A2 / Fold change vs veh, SLC12A2 / RFU, IBTK / Fold change vs veh, IBTK / RFU, ESF1 / Fold change vs veh, ESF1 / Fold change vs veh, TMEM50B / RFU, TAOK1 / Fold change vs veh, TAOK1 / RFU, ACBD3 / Fold change vs veh, ACBD3 / RFU, TMA16 / Fold change vs veh, TMA16 / RFU, RWDD3 / Fold change vs veh, RWDD3 / RFU, BCAT1 / Fold change vs veh, BCAT1 / RFU, EDEM3 / Fold change vs veh, EDEM3 / RFU, TMEM33 / Fold change vs veh, TMEM33 / RFU, WDR75 / Fold change vs veh, WDR75 / RFU, AHCTF1 / Fold change vs veh, AHCTF1 / RFU, TFRC / Fold change vs veh, TFRC / RFU, ZDHHC17 / Fold change vs veh, ZDHHC17 / RFU, NOM1 / Fold change vs veh, NOM1 / RFU, ARL8B / Fold change vs veh, ARL8B / RFU, ZBTB11 / Fold change vs veh, ZBTB11 / RFU, TAMM41 / Fold change vs veh, TAMM41 / RFU, KIAA1704 /// LOC100996395 / Fold change vs veh, KIAA1704 /// LOC100996395 / RFU, ING1 / Fold change vs veh, ING1 / RFU, TRMT61B / Fold change vs veh, TRMT61B / RFU, FUBP3 / Fold change vs veh, FUBP3 / RFU, TP53 / Fold change vs veh, TP53 / RFU, TNKS2 / Fold change vs veh, TNKS2 / RFU, ZFP14 / Fold change vs veh, ZFP14 / RFU, ACTR2 / Fold change vs veh, ACTR2 / RFU, PPP3R1 / Fold change vs veh, PPP3R1 / RFU, PIK3R1 / Fold change vs veh, PIK3R1 / RFU, HNRNPA1 / Fold change vs veh, HNRNPA1 / RFU, RNF170 / Fold change vs veh, RNF170 / RFU, ZNF28 / Fold change vs veh, ZNF28 / RFU, RNGTT / Fold change vs veh, RNGTT / RFU, OGT / Fold change vs veh, OGT / RFU, BRD1 / Fold change vs veh, BRD1 / RFU, MARS / Fold change vs veh, MARS / RFU, ZNF655 / Fold change vs veh, ZNF655 / RFU, FAHD1 / Fold change vs veh, FAHD1 / RFU, BDP1 / Fold change vs veh, BDP1 / RFU, LRRCC1 / Fold change vs veh, LRRCC1 / RFU, ARID1A / Fold change vs veh, ARID1A / RFU, ZNF146 / Fold change vs veh, ZNF146 / RFU, ZNF330 / Fold change vs veh, ZNF330 / RFU, GPN3 / Fold change vs veh, GPN3 / RFU, C9orf123 / Fold change vs veh, C9orf123 / RFU, N4BP2L2 / Fold change vs veh, N4BP2L2 / RFU, ARFIP1 / Fold change vs veh, ARFIP1 / RFU, FAM179B / Fold change vs veh, FAM179B / RFU, BCL10 / Fold change vs veh, BCL10 / RFU, UHRF1BP1L / Fold change vs veh, UHRF1BP1L / RFU, BET1 / Fold change vs veh, BET1 / RFU, CNOT2 / Fold change vs veh, CNOT2 / RFU, ZNF268 / Fold change vs veh, ZNF268 / Fold change vs veh, ZNF507 / RFU, DGCR2 / Fold change vs veh, DGCR2 / RFU, WDSUB1 / Fold change vs veh, WDSUB1 / Fold change vs veh, HSP90B1 /// MIR3652 / RFU, ADSS / Fold change vs veh, ADSS / RFU, GK / Fold change vs veh, GK / RFU, ZNF148 / Fold change vs veh, ZNF148 / RFU, TAF9 / Fold change vs veh, TAF9 / RFU, SLC1A5 / Fold change vs veh, SLC1A5 / RFU, SLMO2 / Fold change vs veh, SLMO2 / RFU, ABCC4 / Fold change vs veh, ABCC4 / RFU, LOC101060439 /// RAP1B / Fold change vs veh, LOC101060439 /// RAP1B / RFU, RFX7 / Fold change vs veh, RFX7 / RFU, GTPBP10 / Fold change vs veh, GTPBP10 / RFU, CNEP1R1 / Fold change vs veh, CNEP1R1 / RFU, BIVM-ERCC5 /// ERCC5 / Fold change vs veh, BIVM-ERCC5 /// ERCC5 / RFU, ILF3 / Fold change vs veh, ILF3 / RFU 11762660_at / Fold change /veh 11762660_at / RFU VCAN (11757783_s_at) / Fold change /veh VCAN (11757783_s_at) / RFU DDX43 (11728927_at) / Fold change /veh DDX43 (11728927_at) / RFU KRT8 (11758188_x_at) / Fold change /veh KRT8 (11758188_x_at) / RFU NKD1 (11759106_at) / Fold change /veh NKD1 (11759106_at) / RFU SRD5A1 (11742802_a_at) / Fold change /veh SRD5A1 (11742802_a_at) / RFU TPSAB1 /// TPSB2 (11721975_s_at) / Fold change /veh TPSAB1 /// TPSB2 (11721975_s_at) / RFU GSTM3 (11746129_a_at) / Fold change /veh GSTM3 (11746129_a_at) / RFU IL23R (11737362_x_at) / Fold change /veh IL23R (11737362_x_at) / RFU TMEM51 (11727254_a_at) / Fold change /veh TMEM51 (11727254_a_at) / RFU PIWIL2 (11732686_x_at) / Fold change /veh PIWIL2 (11732686_x_at) / RFU ORM1 (11744905_x_at) / Fold change /veh ORM1 (11744905_x_at) / RFU CCDC152 (11743942_at) / Fold change /veh CCDC152 (11743942_at) / RFU ECM1 (11717891_a_at) / Fold change /veh ECM1 (11717891_a_at) / RFU IL23R (11748794_a_at) / Fold change /veh IL23R (11748794_a_at) / RFU TNFAIP8L3 (11732012_x_at) / Fold change /veh TNFAIP8L3 (11732012_x_at) / RFU MBOAT4 (11741988_at) / Fold change /veh MBOAT4 (11741988_at) / RFU 11764193_at / Fold change /veh 11764193_at / RFU TMEM53 (11763286_at) / Fold change /veh TMEM53 (11763286_at) / RFU MAGEB2 (11727129_at) / Fold change /veh MAGEB2 (11727129_at) / RFU TMEM200A (11744735_a_at) / Fold change /veh TMEM200A (11744735_a_at) / RFU CCDC152 (11751479_a_at) / Fold change /veh CCDC152 (11751479_a_at) / RFU FAM211A (11726209_a_at) / Fold change /veh FAM211A (11726209_a_at) / RFU RGS16 (11746705_a_at) / Fold change /veh RGS16 (11746705_a_at) / RFU VCAN (11755009_s_at) / Fold change /veh VCAN (11755009_s_at) / RFU RHOB (11743442_s_at) / Fold change /veh RHOB (11743442_s_at) / RFU RGS16 (11720943_a_at) / Fold change /veh RGS16 (11720943_a_at) / RFU RGS16 (11720944_at) / Fold change /veh RGS16 (11720944_at) / RFU, VPS4B / Fold change vs veh, VPS4B / RFU, CREB1 / Fold change vs veh, CREB1 / RFU, DNAJC13 / Fold change vs veh, DNAJC13 / RFU, GNAQ / Fold change vs veh, GNAQ / RFU, CDK5R1 / Fold change vs veh, CDK5R1 / RFU, ZRANB3 / Fold change vs veh, ZRANB3 / RFU, CUL4A / Fold change vs veh, CUL4A / RFU, CCNY / Fold change vs veh, CCNY / RFU, UFL1 / Fold change vs veh, UFL1 / RFU, COG3 / Fold change vs veh, COG3 / RFU, DIAPH2 / Fold change vs veh, DIAPH2 / RFU, SKA2 / Fold change vs veh, SKA2 / RFU, AFF3 / Fold change vs veh, AFF3 / RFU, LMF1 / Fold change vs veh, LMF1 / RFU, IPO11 / Fold change vs veh, IPO11 / RFU, DFFB / Fold change vs veh, DFFB / RFU, FOXP1 / Fold change vs veh, FOXP1 / RFU, CARD8 / Fold change vs veh, CARD8 / RFU, STRN3 / Fold change vs veh, STRN3 / RFU, ADK / Fold change vs veh, ADK / RFU, RASSF2 / Fold change vs veh, RASSF2 / RFU, WIPF1 / Fold change vs veh, WIPF1 / RFU, LARP1B / Fold change vs veh, LARP1B / RFU, RASA1 / Fold change vs veh, RASA1 / RFU, RB1 / Fold change vs veh, RB1 / RFU, PPFIA1 / Fold change vs veh, PPFIA1 / RFU, MAT2A / Fold change vs veh, MAT2A / RFU, CCT5 / Fold change vs veh, CCT5 / RFU, WDR92 / Fold change vs veh, WDR92 / RFU, CUX1 / Fold change vs veh, CUX1 / RFU, TTC7A / Fold change vs veh, TTC7A / RFU, TMEM135 / Fold change vs veh, TMEM135 / RFU, DEPTOR / Fold change vs veh, DEPTOR / RFU, CPM / Fold change vs veh, CPM / RFU, DNAJB6 / Fold change vs veh, DNAJB6 / RFU, CACNA2D3 / Fold change vs veh, CACNA2D3 / RFU, DTX4 / Fold change vs veh, DTX4 / RFU, TFCP2 / Fold change vs veh, TFCP2 / RFU, GMCL1 /// GMCL1P1 / Fold change vs veh, GMCL1 /// GMCL1P1 / RFU, AEBP2 / Fold change vs veh, AEBP2 / RFU, SNHG1 /// SNORD22 /// SNORD25 /// SNORD26 /// SNORD27 /// SNORD28 /// SNORD29 /// SNORD31 / Fold change vs veh, SNHG1 /// SNORD22 /// SNORD25 /// SNORD26 /// SNORD27 /// SNORD28 /// SNORD29 /// SNORD31 / Fold change (Aza/veh), C12orf56 (ProbeSet 11735607_a_at) / Fold change (ACY-1035/veh), C12orf56 (ProbeSet 11735607_a_at) / Fold change (Aza/veh), FGFR1OP (ProbeSet 11751329_s_at) / Fold change (ACY-1035/veh), FGFR1OP (ProbeSet 11751329_s_at) / Fold change (Aza/veh), VPS36 (ProbeSet 11739960_a_at) / Fold change (ACY-1035/veh), VPS36 (ProbeSet 11739960_a_at) / RFU SYPL1 (11715823_x_at) / Fold change /veh SYPL1 (11715823_x_at) / RFU IGFBP7 (11715501_s_at) / Fold change /veh IGFBP7 (11715501_s_at) / RFU REEP3 (11722064_at) / Fold change /veh REEP3 (11722064_at) / RFU IGLL1 (11728026_x_at) / Fold change /veh IGLL1 (11728026_x_at): dose or concentration left out as unconfirmed
Settings: ProbeSet 11716844_s_at; LIST D

Nc1ncn([C@@H]2O[C@H](CO)[C@@H](O)[C@H]2O)c(=O)n1 [azacitidine]
Fold change vs veh, DNAJC13: 0.78
